# Measurements as given in patent US5270334A, “4-methoxy-5-methyl-pyran-3-ol natural products and derivatives thereof” (E. R. Squibb & Sons, Inc., priority 1992, dated 1993).
# pIC50: −log10 of the molar value.
# Experiments:
# Aspergillus fumigatus = test: Antibacterial and antifungal activity of lanomycin, agar dilution assay (Table 4); assay type: cell-based; settings: SC2100, Aspergillus fumigatus SC 2100
# Procedure: (§1) *Minimal inhibitory concentrations were determined by agar dilution assay
# Candida albicans [1] = test: as above; assay type: cell-based
# Procedure: as §1
# Candida guillermondii = test: as above; assay type: cell-based; settings: SC2996, Candida guillermondii SC 2996
# Procedure: as §1
# Candida tropicalis = test: as above; assay type: cell-based; settings: SC2963, Candida tropicalis SC 2963
# Procedure: as §1
# Enterococcus faecalis = test: as above; assay type: cell-based; settings: SC9011; Enterococcus faecalis SC 9011
# Procedure: as §1
# Escherichia coli = test: as above; assay type: cell-based; settings: SC8294; Escherichia coli SC 8294
# Procedure: as §1
# Klebsiella aerogenes = test: as above; assay type: cell-based; settings: SC10440; Klebsiella aerogenes SC 10440
# Procedure: as §1
# Micrococcus luteus = test: as above; assay type: cell-based; settings: SC2495; Micrococcus luteus SC 2495
# Procedure: as §1
# Proteus mirabilis = test: as above; assay type: cell-based; settings: SC3855; Proteus mirabilis SC 3855
# Procedure: as §1
# Pseudomonas aeruginosa = test: as above; assay type: cell-based; settings: SC8329; Pseudomonas aeruginosa SC 8329
# Procedure: as §1
# Staphylococcus aureus = test: as above; assay type: cell-based
# Procedure: as §1
# [2] = test system: Trichophyton mentagrophytes; test: as above; assay type: cell-based; settings: SC2637, Trichophyton mentagrophytes SC 2637
# Procedure: as §1
# Trichophyton rubrum [3] = test: as above; assay type: cell-based; settings: SC9199, Trichophyton rubrum SC 9199
# Procedure: as §1
# Epidermophyton floccosum = test: as above; assay type: cell-based
# Procedure: as §1
# (§2) **Higher value is based on hazy growth; lower value for clearly
# Microsporum canis = test: as above; assay type: cell-based
# Procedure: as §1, §2
# Candida albicans [4] = test: Anticandidal activity of lanomycin, agar dilution method (Table 5); assay type: cell-based; settings: for MIC: 10^4 cfu
# Procedure: (§3) MICs were determined by the agar dilution method using a medium composed of tryptone (5 g), malt extract (3 g), glucose (10 g) and yeast extract (3 g) in 1 L distiled water; 10^4 cfu of the test organism was applied to the agar.
# Candida glabrata = test: as above; assay type: cell-based; settings: for MIC: Nakaseomyces glabratus, 10^4 cfu
# Procedure: as §3
# [5] = acute toxicity, intraperitoneal administration to mice; settings: mouse, in vivo, ip, random bred Swiss Webster Female mice
# Candida species = test: antifungal activity of lanomycin; assay type: cell-based; settings: in words, Table 4
# Procedure: as §1
# Candida parakrusei = test: MIC of scopularin, agar dilution assay (K-10 agar); assay type: cell-based
# Procedure: (§4) The following methodology was used to determine the miniumum inhibitory concentration (hereinafter referred to as MIC) of scopularin.
# (§5) The aerobic test organisms were grown in approximately 15-20ml of Antibiotic Assay Broth (Difco) by inoculating (in tubes) the broth with a loopful of the organism from a BHI (Difco) agar slant. The inoculated tubes were incubated at 37° C. for 18 to 24 hours. These cultures are assumed to contain 10^7 colony forming units (CFU) per ml and the cultures were diluted 1:100 to give a final inoculum level of 10^5 CFU; dilutions were made with Yeast Beef Broth (Difco).
# (§6) Scopularin was dissolved in an appropriate diluent at a concentration of 1,000 μg/ml. Two-fold dilutions were made in Yeast Beef Broth (Difco), resulting in a range from 1000 µg/ml to 0.5 μg/ml. 1.5 ml of each dilution was placed into individual petri dishes to which 13.5ml of K-10 agar was added. The composition of K-10 agar is:
# (§7) The final drug concentration in the agar ranged from 100 μg/ml to 0.05 μg/ml. Organism growth control plates containing agar only were prepared and inoculated before and after the test plates. The organisms were applied to the agar surface of each plate with a Denly Multipoint Inoculator (which delivers approximately 0.001 ml of each organism) resulting in a final inoculum of 10^4 CFU on the agar surface.
# (§8) The plates were incubated at 37° C. for 18 hours and the MICs determined. The MIC is the lowest concentration of compound inhibiting growth of the organism.
# Candida pseudotropicalis = test: MIC of scopularin, agar dilution assay (K-10 agar); assay type: cell-based; settings: Kluyveromyces marxianus, SC11, 18 h; Candida pseudotropicalis SC 11,241
# Procedure: as §4, §5, §6, §7, §8
# Trichophyton rubrum [6] = test: MIC of scopularin, agar dilution assay (K-10 agar); assay type: cell-based; settings: SC9199, 18 h; Trichophyton rubrum SC 9199
# Procedure: as §4, §5, §6, §7, §8
# lanosterol demethylase = target: T1, lanosterol demethylase (Candida albicans, UniProt P10613); test: inhibition of lanosterol demethylase, spectrophotometric carbon monoxide binding assay; settings: Candida albicans SGY677; read-out: concentration which gives 50% inhibition of carbon monoxide binding
# T1 construct: endogenous in cells; host or cells: Candida albicans SGY677
# Procedure: The inhibition of lanosterol demethylase was determined by two methods: the spectrophotometric carbon monoxide binding assay of Omura and Sato (J. Biol. Chem. 239:2370-2378, 1964) and by a radiolabeled metabolic assay.
# Cells of Candida albicans, SGY677, were grown overnight without shaking at 30° C. in a medium consisting of yeast extract 1%, peptone 2%, glucose 2% and distilled water. Cells were harvested by centrifugation and resuspended in 0.65M mannitol to an optical density at 600 nm of 2.5. At this density 1 ml of cells was equal to 6.7 mg constant dry weight (105° C. for 18 hours).
# Scopularin and its alcohol derivative of Example 4 were added to the enzyme and the inhibition of carbon monoxide binding determined over a range of inhibitor concentrations.
# [7] = SC5314, Candida albicans SC 5314
# [8] = SC11422, Candida albicans SC 11422
# T1 sequence (P10613 whole entry): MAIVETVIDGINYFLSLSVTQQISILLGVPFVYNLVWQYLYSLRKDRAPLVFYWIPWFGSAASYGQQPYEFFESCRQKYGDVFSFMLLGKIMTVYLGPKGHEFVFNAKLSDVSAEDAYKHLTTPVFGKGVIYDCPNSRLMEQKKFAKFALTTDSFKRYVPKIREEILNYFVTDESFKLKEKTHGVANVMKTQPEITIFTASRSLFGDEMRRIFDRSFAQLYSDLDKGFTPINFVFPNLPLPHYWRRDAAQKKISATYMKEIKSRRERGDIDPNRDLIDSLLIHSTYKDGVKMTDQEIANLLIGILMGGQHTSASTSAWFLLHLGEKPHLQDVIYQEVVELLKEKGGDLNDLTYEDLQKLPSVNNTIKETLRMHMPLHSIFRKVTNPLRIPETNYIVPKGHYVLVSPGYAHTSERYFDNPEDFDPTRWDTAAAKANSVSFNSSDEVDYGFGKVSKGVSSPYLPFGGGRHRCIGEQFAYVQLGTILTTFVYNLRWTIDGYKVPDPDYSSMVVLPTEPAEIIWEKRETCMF
structure (smiles),measurement,setting,value
C/C=C/C=C/C=C(\C)[C@H]1OC[C@@H](C)[C@@H](OC)[C@@H]1OC(=O)CN (relative stereo) [Lanomycin],MIC,Aspergillus fumigatus,100 µg/mL
same,MIC,Candida albicans [1]; [7],> 100 µg/mL
same,MIC,Candida albicans [1]; [8],100 µg/mL
same,MIC,Candida guillermondii,1.6 µg/mL
same,MIC,Candida tropicalis,25 µg/mL
same,MIC,Enterococcus faecalis,> 100 µg/mL
same,MIC,Escherichia coli,> 100 µg/mL
same,MIC,Klebsiella aerogenes,> 100 µg/mL
same,MIC,Micrococcus luteus,> 100 µg/mL
same,MIC,Proteus mirabilis,> 100 µg/mL
same,MIC,Pseudomonas aeruginosa,> 100 µg/mL
same,MIC,"Staphylococcus aureus; SC1276, Staphylococcus aureus SC 1276",> 100 µg/mL
same,MIC,"Staphylococcus aureus; SC2399, Staphylococcus aureus SC 2399",> 100 µg/mL
same,MIC,[2],0.8 µg/mL
same,MIC,Trichophyton rubrum [3],1.6 µg/mL
same,MIC,"Epidermophyton floccosum; SC9185, Epidermophyton floccosum SC 9185, higher value, based on hazy growth",100 µg/mL
same,MIC,"Epidermophyton floccosum; SC9185, Epidermophyton floccosum SC 9185, lower value, clearly discernible growth",1.6 µg/mL
same,MIC,"Microsporum canis; SC9237, Microsporum canis SC 9237, higher value, based on hazy growth",100 µg/mL
same,MIC,"Microsporum canis; SC9237, Microsporum canis SC 9237, lower value, clearly discernible growth",1.6 µg/mL
same,MIC,Candida albicans [4]; [7],> 100 µg/mL
same,MIC,"Candida albicans [4]; SC9177, Candida albicans SC 9177",100 µg/mL
same,MIC,"Candida albicans [4]; SC9721, Candida albicans SC 9721",100 µg/mL
same,MIC,"Candida albicans [4]; SC10102, Candida albicans SC 10102",> 100 µg/mL
same,MIC,"Candida albicans [4]; SC10580, Candida albicans SC 10580",> 100 µg/mL
same,MIC,"Candida albicans [4]; SC10584, Candida albicans SC 10584",50 µg/mL
same,MIC,"Candida albicans [4]; SC10585, Candida albicans SC 10585",100 µg/mL
same,MIC,Candida albicans [4]; [8],100 µg/mL
same,MIC,"Candida albicans [4]; SC12734, Candida albicans SC 12734",> 100 µg/mL
same,MIC,"Candida albicans [4]; SC14021, Candida albicans SC 14021",> 100 µg/mL
same,activity against the C. albicans species tested,"Candida albicans [4]; in words, Table 5",active
same,MIC,"Candida glabrata; SC9342, Candida glabrata SC 9342",0.8 µg/mL
same,MIC,"Candida glabrata; SC11267, Candida glabrata SC 11267",25 µg/mL
same,activity against certain strains of C. glabrata,"Candida glabrata; in words, Table 5",good activity
same,LD50,[5],385 mg/kg
same,activity against some Candida species,Candida species,showed activity
"CCC/C=C/C=C/C=C(\C)[C@H]1OC[C@@H](C)[C@@H](OC)[C@@H]1OC(=O)CN (relative stereo) [Scopularin, (2α, 3β, 4α, 5α)-Tetrahydro-4-methoxy-5-methyl-2-(1-methyl-1,3,5-nonatrienyl)-2H-pyran-3-ol, aminoacetate ester]",MIC,"Candida parakrusei; SC2621, 18 h, Candida parakrusei SC 2621",0.8 µg/mL
same,MIC,"Candida parakrusei; SC2966, 18 h, Candida parakrusei SC 2966",1.6 µg/mL
same,MIC,Candida pseudotropicalis,25 µg/mL
same,MIC,Trichophyton rubrum [6],0.4 µg/mL
same,pIC50,lanosterol demethylase,4.44
